The target in data set [1] is T1, human VR1 (Homo sapiens, UniProt Q8NER1).
T1 construct: expressed in transfected cells
Briefly: Capsaicin-induced Ca2+ influx in the human VR1-transfected CHO cell line (Assay 1). The data set is classed as cell-based. The following applies: stimulation with 10 nM capsaicin; human VR1-CHOluc9aeq cells; read-out: activity class (IC50). The source says:
[Measurement of Capsaicin-induced Ca^2+ Influx in the Human VR1-transfected CHO Cell Line](Assay 1)
(1) Establishment of the Human VR1-CHOluc9aeq Cell Line
Human vanilloid receptor (hVR1) cDNA was cloned from libraries of axotomized dorsal root ganglia (WO 00/29577). The cloned hVR1 cDNA was constructed with pcDNA3 vector and transfected into a CHOluc9aeq cell line. The cell line contains aequorin and CRE-luciferase reporter genes as read-out signals. The transfectants were cloned by limiting dilution in selection medium (DMEM/F12 medium (Gibco BRL) supplemented with 10% FCS, 1.4 mM Sodium pyruvate, 20 mM HEPES, 0.15% Sodium bicarbonate, 100 U/ml penicillin, 100 μg/ml streptomycin, 2 mM glutamine, non-essential amino acids and 2 mg/ml G418). Ca^2+ influx was examined in the capsaicin-stimulated clones. A high responder clone was selected and used for further experiments in the project. The human VR1-CHOluc9aeq cells were maintained in the selection medium and passaged every 3-4 days at 1-2.5×10^5 cells/flask ([…]).
(2) Measurement of Ca^2+ Influx Using FDSS-3000
Human VR1-CHOluc9aeq cells were suspended in a culture medium which is the same as the selection medium except for G418 and seeded at a density of 1,000 cells per well into 384-well plates (black walled clear-base/Nalge Nunc International). Following the culture for 48 hrs the medium was changed to 2 μM Fluo-3 AM (Molecular Probes) and 0.02% Puronic F-127 in assay buffer (Hank's balanced salt solution (HBSS), 17 mM HEPES (pH7.4), 1 mM Probenecid, 0.1% BSA) and the cells were incubated for 60 min at 25° C. After washing twice with assay buffer the cells were incubated with a test compound or vehicle for 20 min at 25° C. Mobilization of cytoplasmic Ca^2+ was measured by FDSS-3000 (λex=488 nm, λem=540 nm/Hamamatsu Photonics) for 60 sec after the stimulation with 10 nM capsaicin. Integral R was calculated and compared with controls.

47 molecules from US20080045546A1, “Tetradydro-Naphthalene And Urea Derivatives” (priority 2003, published 2008) can be followed below.

T1 sequence (Q8NER1 whole entry): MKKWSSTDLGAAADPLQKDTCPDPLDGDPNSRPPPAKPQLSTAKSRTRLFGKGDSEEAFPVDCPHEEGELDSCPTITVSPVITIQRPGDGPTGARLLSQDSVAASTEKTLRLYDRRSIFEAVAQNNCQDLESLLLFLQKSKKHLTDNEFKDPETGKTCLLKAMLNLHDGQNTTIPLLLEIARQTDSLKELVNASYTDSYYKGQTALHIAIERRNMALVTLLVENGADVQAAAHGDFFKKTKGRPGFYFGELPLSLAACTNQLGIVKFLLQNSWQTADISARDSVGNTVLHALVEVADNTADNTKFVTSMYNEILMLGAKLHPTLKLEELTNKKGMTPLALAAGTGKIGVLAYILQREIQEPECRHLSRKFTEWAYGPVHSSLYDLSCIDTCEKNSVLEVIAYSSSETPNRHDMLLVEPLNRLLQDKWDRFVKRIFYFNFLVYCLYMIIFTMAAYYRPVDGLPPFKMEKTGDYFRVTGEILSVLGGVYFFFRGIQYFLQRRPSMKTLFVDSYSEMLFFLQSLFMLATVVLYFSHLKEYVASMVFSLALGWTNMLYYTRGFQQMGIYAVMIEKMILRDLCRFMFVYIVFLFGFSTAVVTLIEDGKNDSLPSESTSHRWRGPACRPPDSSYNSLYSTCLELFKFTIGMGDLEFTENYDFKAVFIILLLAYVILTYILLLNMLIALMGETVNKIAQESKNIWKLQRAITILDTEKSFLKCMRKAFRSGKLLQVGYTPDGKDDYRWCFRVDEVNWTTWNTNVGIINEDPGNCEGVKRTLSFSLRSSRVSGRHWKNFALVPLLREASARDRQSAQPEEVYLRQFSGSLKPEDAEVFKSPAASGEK

By melting point is commonly meant the temperature of the solid-liquid transition. With `O=C(Nc1ccc2c(c1)OCO2)Nc1cccc2c1CC(O)CC2` (stereo not drawn), the melting point was in the range of 209 to 211 °C.

Broadly, the IC50 is the concentration at which inhibition is half-maximal. As for `CC(=O)OC1Cc2cccc(NC(=O)NCc3ccc(C(F)(F)F)cc3)c2C1` (stereo not drawn) [1-2], in data set [1], the IC50 was under 100 nM.

In the case of `CC(C)(C)c1cc(NC(=O)Nc2cccc3c2CC(O)CC3)no1` (stereo not drawn) [1-2], the IC50 in data set [1] lay within 100 to 500 nM.

As for `COc1ccccc1C(=O)Nc1cccc2c1CC(O)CC2` (stereo not drawn) [1-2], the IC50 in data set [1] lay in the range of 500 to 1000 nM.

Turning to `O=C(Nc1ccc(Cl)c(C(F)(F)F)c1)Nc1cccc2c1CCC2O` (stereo not drawn) [1-3], the IC50 in data set [1] is under 100 nM.

In the case of `O=C(Nc1cccc2c1CC(O)CC2)NC1CCc2ccccc21` (stereo not drawn) [1-3], the IC50 in data set [1] lay within 100 to 500 nM.

For `O=C(Nc1cccc2c1CC(O)CC2)c1ccc(C(F)(F)F)cc1` (stereo not drawn) [1-3], the concentration for half-maximal inhibition (IC50) in data set [1] is 100 to 500 nM.

As to `O=C(Cc1cccc(Br)c1)Nc1cccc2c1CC(O)CC2` (stereo not drawn) [1-4], in data set [1], the IC50 fell in the range of 500 to 1000 nM.

On to `O=C(Nc1ccc(Oc2ccncc2)cc1)Nc1cccc2c1CC(O)CC2` (stereo not drawn) [1-4], for which the half-maximal inhibitory concentration (IC50) in data set [1] was 100 to 500 nM.

Turning to `O=C(NCc1cccnc1)Nc1cccc2c1CC(O)CC2` (stereo not drawn) [1-5], the IC50 in data set [1] fell in the range of 500 to 1000 nM.

Turning to `O=C(NCc1ccncc1)Nc1cccc2c1CC(O)CC2` (stereo not drawn) [1-6], the IC50 in data set [1] was 500 to 1000 nM.

On to `O=C(Nc1cccc2c1CC(O)CC2)NC1CCCc2ccccc21` (stereo not drawn) [1-7], for which the IC50 in data set [1] is under 100 nM.

Regarding `O=C(NCc1ccc(-c2csnn2)cc1)Nc1cccc2c1CC(O)CC2` (stereo not drawn) [1-8], the IC50 in data set [1] was under 100 nM.

Consider `CCOC1=CCc2c(cccc2NC(=O)NCc2ccc(C(F)(F)F)cc2)C1` [2-4], for which the IC50 in data set [1] was 500 to 1000 nM.

`O=C1CCc2c(cccc2NC(=O)NCc2ccc(C(F)(F)F)cc2)C1` [2-5]: the IC50 in data set [1] is under 100 nM.

As to `O=C(NCc1ccc(C(F)(F)F)cc1)Nc1cccc2c1CCC(O)C2` (stereo not drawn) [2-6], the concentration for half-maximal inhibition (IC50) in data set [1] is under 100 nM.

Consider `O=C(Nc1ccc(Cl)c(C(F)(F)F)c1)Nc1cccc2c1CC(O)C(O)C2` (stereo not drawn) [2-7], for which, in data set [1], the IC50 was under 100 nM.

In the case of `COC1Cc2cccc(NC(=O)Nc3ccc(Cl)c(C(F)(F)F)c3)c2CC1O` (stereo not drawn) [2-8], in data set [1], the IC50 lay in the range of 100 to 500 nM.

As to `CC(=O)OC1Cc2cccc(NC(=O)Nc3ccc(Cl)c(C(F)(F)F)c3)c2C1` (stereo not drawn) [Example 1-1, 4-[({[4-Chloro-3-(trifluoromethyl)phenyl]amino}carbonyl)amino]-2,3-dihydro-1H-inden-2-yl acetate], the melting point is 207 to 209 °C.

In the case of `CC(=O)OC1Cc2cccc(NC(=O)Nc3ccc(Cl)c(C(F)(F)F)c3)c2C1` (stereo not drawn) [Example 1-1], the IC50 in data set [1] fell in the range of 500 to 1000 nM.

`O=C(Nc1ccc2c(c1)OCO2)Nc1cccc2c1CC(O)CC2` (stereo not drawn) [Example 1-1]: the IC50 in data set [1] lay within 500 to 1000 nM.

In the case of `O=C(Nc1cccc2c1CC(O)CC2)c1cc2cc(Cl)ccc2[nH]1` (stereo not drawn) [Example 1-1], the IC50 in data set [1] was in the range of 100 to 500 nM.

With `CC(=O)OC1Cc2cccc(NC(=O)NCc3ccc(C(F)(F)F)cc3)c2C1` (stereo not drawn) [Example 1-2], the melting point lay within 166 to 168 °C.

For `COc1ccccc1C(=O)Nc1cccc2c1CC(O)CC2` (stereo not drawn) [Example 1-2], the melting point lay within 184 to 186 °C.

The molecule `O=C(Nc1ccc(Cl)c(C(F)(F)F)c1)Nc1cccc2c1CCC2O` (stereo not drawn) [Example 1-3] registered a melting point of 221 to 223 °C.

The molecule `O=C(Nc1cccc2c1CC(O)CC2)NC1CCc2ccccc21` (stereo not drawn) [Example 1-3] gave a melting point of 193 to 195 °C.

Molecule `O=C(Nc1cccc2c1CC(O)CC2)c1ccc(C(F)(F)F)cc1` (stereo not drawn) [Example 1-3] showed a melting point of 217 to 218 °C.

Take `O=C(Nc1ccc(Oc2ccncc2)cc1)Nc1cccc2c1CC(O)CC2` (stereo not drawn) [Example 1-4]: the melting point fell in the range of 200 to 202 °C.

The molecule `O=C(NCc1cccnc1)Nc1cccc2c1CC(O)CC2` (stereo not drawn) [Example 1-5] gave a melting point of 203 °C.

For `O=C(NCc1ccncc1)Nc1cccc2c1CC(O)CC2` (stereo not drawn) [Example 1-6], the melting point stood at 243 °C.

On to `O=C(Nc1cccc2c1CC(O)CC2)NC1CCCc2ccccc21` (stereo not drawn) [Example 1-7], for which the melting point is 216 °C.

In the case of `O=C(NCc1ccc(-c2csnn2)cc1)Nc1cccc2c1CC(O)CC2` (stereo not drawn) [Example 1-8], the melting point worked out at 225 °C.

Consider `O=C(NCc1ccccn1)Nc1cccc2c1CC(O)CC2` (stereo not drawn) [Example 1-9], for which the melting point is 230 °C. Further, in data set [1], the IC50 lay in the range of 500 to 1000 nM.

Regarding `O=C(NCc1ccc2c(c1)OCO2)Nc1cccc2c1CC(O)CC2` (stereo not drawn) [Example 1-10], the melting point stood at 190 °C. Further, the IC50 in data set [1] is under 100 nM.

Molecule `O=C(Nc1cccc(-c2ccncc2)c1)Nc1cccc2c1CC(O)CC2` (stereo not drawn) [Example 1-11] displayed a melting point of 208 °C. For the same molecule, the 50% inhibitory concentration (IC50) in data set [1] was under 100 nM.

In turn, `O=C(NCc1ccc(C(F)(F)F)nc1)Nc1cccc2c1CC(O)CC2` (stereo not drawn) [Example 1-12] displayed a melting point of 211 to 212 °C. Moreover, in data set [1], the IC50 is under 100 nM.

In turn, `Cl.O=C(NCc1ccc(C(F)(F)F)nc1)Nc1cccc2c1CC(O)CC2` (stereo not drawn) [Example 1-13] registered a melting point of 204 to 205 °C. Further, in data set [1], the IC50 was under 100 nM.

`CCOC1=CCc2c(cccc2NC(=O)Nc2ccc(Cl)c(C(F)(F)F)c2)C1` [Example 2-1, N-[4Chloro-3-(trifluoromethyl)phenyl]-N′-(6-ethoxy-5,8-dihydronaphthalen-1-yl)urea]: the melting point was 216 °C.

As to `O=C1CCc2c(cccc2NC(=O)Nc2ccc(Cl)c(C(F)(F)F)c2)C1` [Example 2-2, N-[4-Chloro-3-(trifluoromethyl)phenyl]-N′-(6-oxo-5,6,7,8-tetrahydronaphthalen-1-yl)urea], the melting point worked out at 219 °C.

`O=C1CCc2c(cccc2NC(=O)Nc2ccc(Cl)c(C(F)(F)F)c2)C1` [Example 2-2]: in data set [1], the IC50 was under 100 nM.

For `O=C(Nc1ccc(Cl)c(C(F)(F)F)c1)Nc1cccc2c1CCC(O)C2` (stereo not drawn) [Example 2-3, N-[4-Chloro-3-(trifluoromethyl)phenyl]-N′-(6-hydroxy-5,6,7,8-tetrahydronaphthalen-1-yl)urea], the melting point was determined as 216 °C. Moreover, the IC50 in data set [1] is under 100 nM.

Take `CCOC1=CCc2c(cccc2NC(=O)NCc2ccc(C(F)(F)F)cc2)C1` [Example 2-4]: the melting point came out at 235 °C.

Take `O=C1CCc2c(cccc2NC(=O)NCc2ccc(C(F)(F)F)cc2)C1` [Example 2-5]: the melting point was 221 °C.

Regarding `O=C(NCc1ccc(C(F)(F)F)cc1)Nc1cccc2c1CCC(O)C2` (stereo not drawn) [Example 2-6], the melting point turned out to be 205 °C.

For the molecule `COC1Cc2c(cccc2NC(=O)Nc2ccc(Cl)c(C(F)(F)F)c2)CC1O` (stereo not drawn) [Example 2-9], the melting point lay in the range of 112 to 127 °C. In addition, the IC50 in data set [1] was under 100 nM.

On to `CC1CCc2cccc(NC(=O)Nc3ccc(Cl)c(C(F)(F)F)c3)c2C1` (stereo not drawn) [Example 3-1], for which the IC50 in data set [1] is under 100 nM.

Consider `O=C(Nc1ccc(Cl)c(C(F)(F)F)c1)Nc1cccc2c1CC(CO)CC2` (stereo not drawn) [Example 4-1, N-[4-Chloro-3-(trifluoromethyl)phenyl]-N′-[7-(hydroxymethyl)-5,6,7,8-tetrahydronaphthalen-1-yl]urea], for which, in data set [1], the IC50 is under 100 nM.
